Values of other authors as cited in patent publication US20240335440A1, “COMBINATION THERAPY COMPRISING A PKC INHIBITOR AND A C-MET INHIBITOR” (IDEAYA BIOSCIENCES, INC., priority 2021, published 2024).
Like-named read-outs stand apart in the source and are kept apart here. Marks after values point to notes of the source that are not given here.

Tests used:
[1] = test system: metastatic uveal melanoma (MUM); conditions: Second-Line + MUM (n = 127)
[2] = test system: metastatic uveal melanoma (MUM); conditions: First-Line MUM (n = 31); oral capsules QD

Molecule: Tebentafusp: HLA-A2-0201 bi-specific AB, IV infusion (weekly), IMCgp100-102 study
- Tolerability (Grade ≥3 Drug-related AE) ([1]; HLA-A2-0201 patients, IV infusion weekly): 46.5%
- % Pts with tumor shrinkage ([1]; independent review): 44%^#
- Overall response rate by RECIST 1.1 ([1]; independent review): 4.7%^#
- Progression free survival (mPFS) ([1]; independent review): 2.8 mo.^#

Molecule: COc1cc2nccc(Oc3ccc(NC(=O)C4(C(=O)Nc5ccc(F)cc5)CC4)cc3)c2cc1OC [Cabozantinib]
- Tolerability (Grade ≥3 Drug-related AE) [2]: 51.6%
